Experimental findings from PubChem BioAssay (NCI) are described below.

What all share (assay): NCI tumour cell line growth inhibition, 48 h
Assay [1] deals with HOP-92 NSCLC.
Assay [2] concerns NCI-H460 lung.
Assay [3] concerns COLO 205 colon.
Assay [4] relates to SK-OV-3 ovarian.
Assay [5] concerns TK-10 renal.
Assay [6] concerns CCRF-CEM leukemia.
Assay [7] relates to SNB-19 CNS.
The test system of assay [8] is A498 renal.
Assay [9] concerns SR leukemia.
For assay [10], the system named is HT29 colon.

The structures appear in SMILES notation.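 How tested: cells in 96-well plates exposed to compound for 48 hours at five concentrations. Here, GI50 denotes the concentration required for 50% inhibition of growth. TGI denotes the concentration required for complete inhibition of growth.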

For the molecule `CC(C)=CC[C@@H]1CC2(CC=C(C)C)C(=O)C(OC3(C(=O)c4ccccc4)C(=O)C4(CC=C(C)C)C[C@@H](CC=C(C)C)C(C)(C)C(CC=C(C)C)(C4=O)C3=O)(C(=O)c3ccccc3)C(=O)C(CC=C(C)C)(C2=O)C1(C)C` (stereo not given in full), the GI50 was 1.08 µM in assay [1]; 1.27 µM in assay [2]; 1.2 µM in assay [3]; 1.41 µM in assay [4]; 1.54 µM in assay [5]; 1.64 µM in [6]. Further, the GI50 in assay [7] was 1.64 µM; in assay [8], 1.01 µM; in assay [9], 1.67 µM; in [10], 1.41 µM. Also, the TGI in assay [1] came out at 2.86 µM; in assay [2] it was 3.07 µM; in assay [3], 3.22 µM; in assay [4] it was 4 µM; in [5], 8.04 µM; in [6] it was 5.52 µM. In addition, the TGI in [7] is 6.65 µM; in assay [8], 2.09 µM; in assay [9], 50 µM; in assay [10], 4.31 µM.

In the case of `CN(C)CC1CC/C(=C\c2ccc(Cl)c(Cl)c2)C1=O` (stereo not given), the TGI in assay [1] is 48.2 µM; in [2], 36.1 µM; in assay [3], more than 51.8 µM; in assay [4] it was more than 100 µM; in [5], 19.9 µM; in [6], 22.7 µM. In addition, the TGI in assay [7] was more than 56.1 µM; in assay [8], 73.6 µM; in [9], 6.91 µM; in assay [10] it was 54.4 µM.

As to `COc1ccc(C2=NN(C(N)=S)C(c3ccc4c(c3)OCO4)C2)cc1` (stereo not given), the GI50 in [1] is 2.12 µM; in assay [2], 2.6 µM; in assay [3], 3.39 µM; in assay [4] it was 2.35 µM; in [5], 2.47 µM; in assay [6] it was 2.5 µM. Besides, the GI50 is 3.13 µM in assay [7], 2.24 µM in assay [8], 3.08 µM in assay [9] and 3.13 µM in assay [10]. Moreover, the TGI in assay [1] amounted to 8.05 µM; in assay [2] it was 6.83 µM; in [3] it was 11.5 µM; in assay [4] it was 6.12 µM; in assay [5] it was 9.54 µM; in assay [6], 8.18 µM. The TGI was 22.8 µM in assay [7], 9.07 µM in assay [8], 11.8 µM in assay [9] and more than 100 µM in assay [10].

In the case of `Nc1ccc(/C=C/c2ccc3ncccc3c2)cc1`, the GI50 in assay [1] was 12.9 µM; in assay [2] it was more than 100 µM; in assay [3], more than 100 µM; in [4], more than 100 µM; in assay [5], 86.5 µM; in [6], 0.821 µM. The GI50 in assay [7], in assay [8], in assay [9] and in assay [10] was more than 100 µM each time. Moreover, the TGI in [1], in [2], in [3], in assay [4], in assay [5] and in assay [6] was more than 100 µM in each case. In addition, the TGI in assay [7], in assay [8], in [9] and in assay [10] was more than 100 µM each time.

For the molecule `CC(C)=CCC/C(C)=C/CC/C(C)=C/CSC[C@H](NC(=O)CCCCCN1CCN(C)CC1)C(=O)NC1CCCCCC1`, the GI50 in assay [1] is 2.3 µM; in [2], 1.93 µM; in assay [3], 1.85 µM; in assay [4], 5.16 µM; in assay [5] it was 4.4 µM; in [6], 2.35 µM. Moreover, the GI50 is 2.02 µM in [7], 3.76 µM in assay [8], 1.98 µM in [9] and 2.19 µM in assay [10]. Moreover, the TGI in assay [1] came out at 8.39 µM; in assay [2] it was 3.69 µM; in assay [3], 3.63 µM; in [4], 17.1 µM; in assay [5] it was 9.11 µM; in [6], 7.07 µM. The TGI in [7] was 4.43 µM; in [8] it was 16.7 µM; in assay [9], 5.35 µM; in assay [10], 4.74 µM.

Take `CCC(=C(c1ccc(OCCN2CCCCC2)cc1)c1ccc(OCCN2CCCCC2)cc1)c1ccc(Cl)cc1`: the GI50 was 1.57 µM in [1]; 5.7 µM in [2]; 3.59 µM in assay [3]; more than 16.7 µM in [4]; more than 16.7 µM in assay [5]; 1.92 µM in assay [6]. In addition, the GI50 was 5.91 µM in assay [7], more than 16.7 µM in assay [8], 0.425 µM in [9] and 0.762 µM in assay [10]. For the same molecule, the TGI is more than 16.7 µM in [1]; more than 16.7 µM in assay [2]; 9.01 µM in [3]; more than 16.7 µM in [4]; more than 16.7 µM in assay [5]; more than 16.7 µM in assay [6]. Further, the TGI was more than 16.7 µM in assay [7], more than 16.7 µM in [8], 1.27 µM in assay [9] and more than 16.7 µM in assay [10].
